Experimental data: article PMC6792352, “Limited Chemical Structural Diversity Found to Modulate Thyroid Hormone Receptor in the Tox21 Chemical Library” (Environmental Health Perspectives, 2019)
Where a name gives a salt, the structure may show the parent alone.

Assay: in vitro
Details: rat, gh3-tre-luc cells

Structure (SMILES) | CC50 at 24 h (AC50 (uM) modified / 1000) [µM] | other results
Cc1ccc2nc(-c3ccc(N)cc3)sc2c1S(=O)(=O)O | > 50 | –
CCCCCCCCCCCCCCCC(=O)OC[C@@H](COP(=O)([O-])OCC[N+](C)(C)C)OC(=O)CCCCCCCCCCCCCCC | > 50 | –
C=C[Si](OCCOC)(OCCOC)OCCOC | > 90 | –
CCCCCc1ccc(Cl)cc1 | > 90 | –
CCCCCCCCCCCC[N+](C)(C)CCCS(=O)(=O)O | 55.3 | –
CC(C)(c1cc(Br)c(OCCO)c(Br)c1)c1cc(Br)c(OCCO)c(Br)c1 | 44.3 | –
CCOc1ccc2c(c1)C(C)CC(C)(C)N2 (centres unmarked) | > 90 | –
CC(CN)CCCN (centres unmarked) | > 90 | –
CCSC(=O)Cl | > 100 | –
C[Si](O[Si](C)(C)C)O[Si](C)(C)C | > 90 | –
CC(C)(C)c1cc(CO)cc(C(C)(C)C)c1O | 82.2 | –
Cc1cc(C)cc(C(=O)OC2C[C@H]3CC[C@@H](C2)N3C)c1 (some centres unmarked) | 22.4 | –
C[Si](C)O[Si](C)(C)O[Si](C)(C)O[Si](C)C | > 90 | –
CC(C=O)Cc1ccc2c(c1)OCO2 (centres unmarked) | – | CC50 at 24 h (AC50 (uM) modified / 1000, Tox21_110001=Tox21_301642, viability, 1 nM T3 present, 24 h): > 90 µM
CC#CCC(C)[C@H](O)/C=C/[C@@H]1[C@H]2c3cccc(CCCC(=O)O)c3O[C@H]2C[C@H]1O (mixture of isomers) [Beraprost sodium] | > 50 | –
CC(=O)N(CC(O)CO)c1c(I)c(C(=O)NCC(O)CO)c(I)c(C(=O)NCC(O)CO)c1I (mixture of isomers) [Iohexol] | > 50 | –
COCC(=O)Nc1c(I)c(C(=O)NCC(O)CO)c(I)c(C(=O)N(C)CC(O)CO)c1I (mixture of isomers) [Iopromide] | > 20 | –
CCC(C)n1ncn(-c2ccc(N3CCN(c4ccc(OC[C@H]5CO[C@](Cn6cncn6)(c6ccc(Cl)cc6Cl)O5)cc4)CC3)cc2)c1=O (mixture of isomers) [Itraconazole] | 3.2 | –
OC[C@H]1O[C@@H](O[C@@H]2[C@@H](CO)OC(O)(CO)[C@H]2O)[C@H](O)[C@@H](O)[C@H]1O (mixture of isomers) [Lactulose] | > 50 | –
CCCCC(C)(O)C/C=C/[C@H]1[C@H](O)CC(=O)[C@@H]1CCCCCCC(=O)OC (mixture of isomers) [Misoprostol] | > 50 | –
CC(C)(C)NCC(O)COc1cccc2c1C[C@H](O)[C@H](O)C2 (mixture of isomers) [Nadolol] | > 20 | –
C#C[C@]1(OC(C)=O)CC[C@H]2[C@@H]3CCC4=CC(=NO)CC[C@@H]4[C@H]3CC[C@@]21CC (mixture of isomers) [Norgestimate] | 30.6 | –
CCCCCCCCCCCCCC(=O)OCC(COP(=O)([O-])OCC[N+](C)(C)C)OC(=O)CCCCCCCCCCCCC (racemic) [1,2-Ditetradecanoyl-rac-glycerol-3-phosphocholine] | > 50 | –
NC(Cc1ccc(F)cc1)C(=O)O (racemic) [4-Fluoro-dl-phenylalanine] | 2.98 | –

Structure (SMILES) | CC50 at 24 h (AC50 (uM) modified / 1000) [µM] | other results
CC1=C(C)C(=O)C(C(CCCCCC(=O)O)c2ccccc2)=C(C)C1=O (racemic) [(+-)-7-(3,5,6-trimethyl-1,4-benzoquinon-2-yl)-7-phenylheptanoic acid] | > 50 | –
COC(=O)C1=C(C)NC(C)=C(C(=O)OCCCN2CCC(c3ccccc3)(c3ccccc3)CC2)C1c1cccc([N+](=O)[O-])c1 (racemic) [(+/-) -Niguldipine hydrochloride (1:x)] | 12.3 | –
CNC(C)CC1CCCCC1 (racemic) [(+/-) Propylhexedrine] | – | CC50 at 24 h (AC50 (uM) modified / 1000, Tox21_110001=Tox21_113077, viability, 1 nM T3 present, 24 h): > 50 µM
CC(O)CCCCn1c(=O)c2c(ncn2C)n(C)c1=O (racemic) [(+/-)-Lisofylline] | > 50 | –
CN1C[C@@H]2c3ccccc3Oc3ccc(Cl)cc3[C@H]2C1 (racemic) [Asenapine] | 33.1 | –
Cc1c(COC(=O)[C@@H]2[C@H](/C=C(\Cl)C(F)(F)F)C2(C)C)cccc1-c1ccccc1 (racemic) [Bifenthrin] | > 90 | –
Cc1ccccc1CO[C@@H]1C[C@@]2(C(C)C)CC[C@]1(C)O2 (racemic) [Cinmethylin] | > 90 | –
NC(CS)C(=O)O (racemic) [DL-Cysteine] | > 50 | –
O=C[C@H](O)[C@@H](O)[C@H](O)[C@H](O)CO (racemic) [DL-Glucose] | > 50 | –
NC(CCC(=O)O)C(=O)O (racemic) [DL-Glutamic acid monohydrate] | > 80 | –
CC[C@H](C)[C@H](N)C(=O)O (racemic) [DL-Isoleucine] | > 50 | –
Cc1c(C)c2c(c(C)c1OC(=O)c1cccnc1)CC[C@@](C)(CCC[C@H](C)CCC[C@H](C)CCCC(C)C)O2 (racemic) [DL-alpha Tocopheryl nicotinate] | > 50 | –
Fc1ccc([C@@]2(Cn3cncn3)O[C@@H]2c2ccccc2Cl)cc1 (racemic) [Epoxiconazole] | > 90 | –
C[C@@]1(c2ccc(Oc3ccccc3)cc2)OC(=O)N(Nc2ccccc2)C1=O (racemic) [Famoxadone] | 39 | –
O=C(O)CCC/C=C\C[C@@H]1[C@@H](/C=C/[C@@H](O)COc2cccc(C(F)(F)F)c2)[C@H](O)C[C@@H]1O (racemic) [Fluprostenol] | > 50 | –
CC(C)n1c(/C=C/[C@H](O)C[C@H](O)CC(=O)O)c(-c2ccc(F)cc2)c2ccccc21 (racemic) [Fluvastatin] | > 90 | –
O=C(C[C@H]1NCCC[C@@H]1O)Cn1cnc2cc(Br)c(Cl)cc2c1=O (racemic) [Halofuginone hydrochloride] | > 50 | –
CCC(=O)O[C@@H]1C[C@H]2CC[C@]1(C)C2(C)C (racemic) [Isobornyl propanoate] | > 90 | –
CCN(CC)C(=O)[C@]1(c2ccccc2)C[C@@H]1CN (racemic) [Milnacipran hydrochloride] | > 50 | –
CNc1cc(OC)c(C(=O)N[C@@H]2CCN(Cc3ccccc3)[C@@H]2C)cc1Cl (racemic) [Nemonapride] | > 50 | –
CC(C)(C)[C@H](O)[C@H](Cc1ccc(Cl)cc1)n1cncn1 (racemic) [Paclobutrazol] | > 90 | –
C[C@@H](NCCc1ccc(O)cc1)[C@@H](O)c1ccc(O)cc1 (racemic) [Ritodrine hydrochloride] | > 50 | –
O=C(O)[C@@H]1C[C@H](CP(=O)(O)O)CCN1 (racemic) [Selfotel] | > 50 | –
CCCCCCCCN[C@@H](C)[C@H](O)c1ccc(SC(C)C)cc1 (racemic) [Suloctdil] | 4.84 | –

Structure (SMILES) | CC50 at 24 h (AC50 (uM) modified / 1000) [µM] | other results
Cc1c(F)c(F)c(COC(=O)[C@H]2[C@@H](/C=C(\Cl)C(F)(F)F)C2(C)C)c(F)c1F (racemic) [Tefluthrin] | > 90 | –
CC(C)N1CCN(c2ccc(OC[C@H]3CO[C@](Cn4cncn4)(c4ccc(Cl)cc4Cl)O3)cc2)CC1 (racemic) [Terconazole] | 5.35 | –
COc1cc2c(cc1OC)[C@H]1CC(=O)[C@H](CC(C)C)CN1CC2 (racemic) [Tetrabenazine] | > 50 | –
C[N@+]12CCCC[C@@H]1CCC(=C(c1cccs1)c1cccs1)C2 (racemic) [Tiquizium bromide] | > 50 | –
C=C(C)C1CC=C(C)C(=O)C1 (racemic) [dl-Carvone] | > 90 | –
CCCC1CCCCN1 (racemic) [dl-Coniine] | – | CC50 at 24 h (AC50 (uM) modified / 1000, Tox21_110001=Tox21_112688, viability, 1 nM T3 present, 24 h): > 50 µM
CNC(C)Cc1ccccc1 (racemic) [dl-Methamphetamine hydrochloride] | > 90 | –
NC(Cc1c[nH]c2ccccc12)C(=O)O (racemic) [dl-Tryptophan] | > 50 | –
CC(=O)Oc1c(C)c(C)c2c(c1C)CC[C@@](C)(CCC[C@H](C)CCC[C@H](C)CCCC(C)C)O2 (racemic) [dl-alpha-Tocopheryl acetate] | > 90 | –
COC(=O)C1=C(C)NC(C)=C(C(=O)O[C@@H]2CCCN(Cc3ccccc3)C2)[C@@H]1c1cccc([N+](=O)[O-])c1 (racemic) [rac Benidipine hydrochloride] | 25.5 | –
O[C@@H](CNC[C@H](O)[C@H]1CCc2cc(F)ccc2O1)[C@@H]1CCc2cc(F)ccc2O1 (racemic) [rac Nebivolol hydrochloride] | 7.99 | –
C[C@@H]1CC[C@H]2C(C)(C)C3CC12CC[C@@]3(C)O (single isomer, unassigned; (+)) [(+)-Cedrol] | 71.6 | –
CC1C(=O)C[C@]2(C(C)C)C[C@H]12 (single isomer, unassigned; (-)) [(-)-alpha,beta-Thujone] | – | CC50 at 24 h (AC50 (uM) modified / 1000, Tox21_110001=Tox21_301840, viability, 1 nM T3 present, 24 h): > 80 µM
C[C@H]1C[C@@H](O)CC(C)(C)C1 (stereo in doubt) [(1R,5R)-3,3,5-trimethylcyclohexanol] | > 90 | –
CC(C)[C@H]1CC[C@@H](C)CC1=O (stereo in doubt) [(2R,5R)-5-Methyl-2-(propan-2-yl)cyclohexanone] | > 90 | –
CCC=CCCOC(=O)c1ccccc1O (stereo in doubt) [(3Z)-Hex-3-en-1-yl salicylate] | > 90 | –
C[C@H]1N=C(N)O[C@H]1c1ccccc1 (stereo in doubt) [(4R,5S)-4-methyl-5-phenyl-4,5-dihydro-1,3-oxazol-2-amine] | – | CC50 at 24 h (AC50 (uM) modified / 1000, Tox21_110001=Tox21_112818, viability, 1 nM T3 present, 24 h): > 90 µM
CCC=CCCCCO (stereo in doubt) [(Z)-5-Octen-1-ol] | > 90 | –
CC(=C(CCOC(=O)C(C)C)SSC(CCOC(=O)C(C)C)=C(C)N(C=O)Cc1cnc(C)nc1N)N(C=O)Cc1cnc(C)nc1N (stereo in doubt) [Bisibutiamine] | > 50 | –
CC(=C(CCO)SSCC1CCCO1)N(C=O)Cc1cnc(C)nc1N (stereo in doubt) [Fursultiamine hydrochloride] | > 50 | –
Cc1ccc(S(=O)(=O)NC(=O)NN2CC3CCC[C@@H]3C2)cc1 (stereo in doubt) [Gliclazide] | > 20 | –
O=c1[nH]ncc2ccccc12 [1(2H)-Phthalazinone] | > 90 | –
O=C1CCCCC1C1CCCCC1 (centres unmarked) [1,1'-Bi(cyclohexyl)-2-one] | > 90 | –
